This is an account of results in ChEMBL document CHEMBL3132785, “Design, synthesis and evaluation of N6-substituted 2-aminoadenosine-5-N-methylcarboxamides as A3 adenosine receptor agonists” (Medchemcomm, 2014).

For one test, the target named is T1, Adenosine receptor A3 (Homo sapiens, UniProt P0DMS8).
T1 sequence (P0DMS8 whole entry): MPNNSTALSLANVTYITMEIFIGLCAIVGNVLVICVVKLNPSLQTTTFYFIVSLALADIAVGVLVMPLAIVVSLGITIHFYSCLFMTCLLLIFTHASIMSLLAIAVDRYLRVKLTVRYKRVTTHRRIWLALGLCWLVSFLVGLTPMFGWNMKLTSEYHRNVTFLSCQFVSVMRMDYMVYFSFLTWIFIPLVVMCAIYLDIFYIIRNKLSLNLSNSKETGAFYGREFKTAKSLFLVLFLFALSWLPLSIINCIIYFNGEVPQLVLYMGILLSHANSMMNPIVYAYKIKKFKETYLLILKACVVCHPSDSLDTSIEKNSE
Put plainly: Agonist activity at human adenosine A3 receptor expressed in FlpIn-CHO cells assessed as inhibition of forskolin-induced cAMP accumulation after 30 mins by fluorescence assay. The test is classed as functional, cell-based. In general terms: cAMP levels reflect the balance of adenylyl cyclase and phosphodiesterase activity.

The target of the next test is T2, Adenosine receptor A1 (Homo sapiens, UniProt P30542).
T2 sequence (P30542 whole entry): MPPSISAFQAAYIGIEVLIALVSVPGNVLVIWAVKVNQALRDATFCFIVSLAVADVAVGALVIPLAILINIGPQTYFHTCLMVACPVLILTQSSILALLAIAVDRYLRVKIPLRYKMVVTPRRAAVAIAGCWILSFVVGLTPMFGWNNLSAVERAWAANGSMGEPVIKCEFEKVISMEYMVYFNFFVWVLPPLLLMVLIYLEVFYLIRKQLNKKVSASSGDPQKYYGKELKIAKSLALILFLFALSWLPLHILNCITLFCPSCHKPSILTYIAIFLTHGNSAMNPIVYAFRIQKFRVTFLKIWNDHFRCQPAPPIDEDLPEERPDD
Put plainly: Agonist activity at human adenosine A1 receptor expressed in FlpIn-CHO cells assessed as inhibition of forskolin-induced cAMP accumulation after 30 mins by fluorescence assay. The format is functional, cell-based.

Test [1] is filed under the species Homo sapiens. Put plainly: Selectivity ratio; ratio of pEC50 for human adenosine A2B receptor to pEC50 for human adenosine A3 receptor.
For test [2], the target named is Adenosine receptors; A1 & A3 (Homo sapiens) (UniProt P30542+P0DMS8). Put plainly: Selectivity ratio; ratio of pEC50 for human adenosine A1 receptor to pEC50 for human adenosine A3 receptor.
The species named for test [3] is Homo sapiens. Put plainly: Selectivity ratio; ratio of pEC50 for human adenosine A2A receptor to pEC50 for human adenosine A3 receptor.
Another test has as its target T3, Adenosine receptor A2b (Homo sapiens, UniProt P29275).
T3 sequence (P29275 whole entry): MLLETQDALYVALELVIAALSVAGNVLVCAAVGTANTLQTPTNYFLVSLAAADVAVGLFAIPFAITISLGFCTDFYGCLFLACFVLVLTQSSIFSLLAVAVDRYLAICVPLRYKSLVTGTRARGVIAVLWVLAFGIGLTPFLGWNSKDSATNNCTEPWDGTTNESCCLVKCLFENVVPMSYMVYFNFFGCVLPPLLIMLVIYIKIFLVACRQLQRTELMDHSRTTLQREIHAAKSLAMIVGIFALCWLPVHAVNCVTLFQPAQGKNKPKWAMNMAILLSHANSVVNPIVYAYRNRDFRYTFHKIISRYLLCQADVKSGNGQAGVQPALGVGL
Put plainly: Agonist activity at human adenosine A2B receptor expressed in FlpIn-CHO cells assessed as inhibition of forskolin-induced cAMP accumulation after 30 mins by fluorescence assay. The format is functional, cell-based.

Another test concerns the target Adenosine receptor A2a (Homo sapiens, UniProt P29274). Put plainly: Agonist activity at human adenosine A2A receptor expressed in FlpIn-CHO cells assessed as inhibition of forskolin-induced cAMP accumulation after 30 mins by fluorescence assay. The test is classed as functional, cell-based.

Structures are written as SMILES. pEC50: −log10 of the molar value.

Chain of Adenosine receptor A2a (P29274 whole entry): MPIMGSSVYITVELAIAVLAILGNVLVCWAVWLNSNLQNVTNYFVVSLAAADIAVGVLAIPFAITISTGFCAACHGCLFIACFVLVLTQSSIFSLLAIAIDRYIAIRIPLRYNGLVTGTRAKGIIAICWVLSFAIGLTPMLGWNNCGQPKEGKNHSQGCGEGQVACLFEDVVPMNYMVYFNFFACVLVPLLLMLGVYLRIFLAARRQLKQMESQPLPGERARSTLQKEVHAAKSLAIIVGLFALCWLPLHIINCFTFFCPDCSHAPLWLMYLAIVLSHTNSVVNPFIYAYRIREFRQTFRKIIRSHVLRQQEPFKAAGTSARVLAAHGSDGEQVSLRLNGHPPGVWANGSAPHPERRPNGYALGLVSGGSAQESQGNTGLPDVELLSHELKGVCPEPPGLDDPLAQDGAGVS

What is called pEC50 is −log10 of the EC50, conventionally taken in molar units. For `CNC(=O)[C@H]1O[C@@H](n2cnc3c(NC4CCCCC4)nc(N)nc32)[C@H](O)[C@@H]1O`, the pEC50 on Adenosine receptor A3 was 6.90; at Adenosine receptor A1, 7.20; at Adenosine receptor A2b, 5.60; on Adenosine receptor A2a, 6.10. Further, the Selectivity ratio in the test filed under Homo sapiens [1] turned out to be 20; in test [2], 1; in the test filed under Homo sapiens [3] it was 6.

In the case of `CNC(=O)[C@H]1O[C@@H](n2cnc3c(NCc4cccc(I)c4)ncnc32)[C@H](O)[C@@H]1O` [IB-MECA], the pEC50 on Adenosine receptor A2b is 7.50.

For the compound `CNC(=O)[C@H]1O[C@@H](n2cnc3c(NC)nc(N)nc32)[C@H](O)[C@@H]1O`, the pEC50 on Adenosine receptor A3 is 8.30; on Adenosine receptor A1, 5.40; on Adenosine receptor A2b, 5.80; on Adenosine receptor A2a, under 5.00. Further, the Selectivity ratio in the test listed under Homo sapiens [1] is 316; in test [2] it was 794; in the test listed under Homo sapiens [3], over 2000.

With `CNC(=O)[C@H]1O[C@@H](n2cnc3c(NCCc4ccccc4)nc(N)nc32)[C@H](O)[C@@H]1O`, the pEC50 at Adenosine receptor A3 is 8.40; on Adenosine receptor A1 it was 6.50; on Adenosine receptor A2b, 6.80; at Adenosine receptor A2a, 7.10. In addition, the Selectivity ratio in the test filed under Homo sapiens [1] came to 40; in test [2], 79; in the test filed under Homo sapiens [3], 20.

On to `CNC(=O)[C@H]1O[C@@H](n2cnc3c(NC4CCCC4)nc(NC)nc32)[C@H](O)[C@@H]1O`, for which the pEC50 on Adenosine receptor A3 was 7.00; on Adenosine receptor A1, 6.40; at Adenosine receptor A2b, under 5.00; at Adenosine receptor A2a, 5.40. Moreover, the Selectivity ratio in the test filed under Homo sapiens [1] was over 100; in test [2], 4; in the test listed under Homo sapiens [3], 40.

As to `CNC(=O)[C@H]1O[C@@H](n2cnc3c(NCc4cccc(Cl)c4)nc(N)nc32)[C@H](O)[C@@H]1O`, the pEC50 is 9.20 on Adenosine receptor A3, 6.50 at Adenosine receptor A1, 6.40 on Adenosine receptor A2b and 6.40 at Adenosine receptor A2a. The Selectivity ratio turned out to be 631 in the test listed under Homo sapiens [1], 501 in test [2] and 631 in the test filed under Homo sapiens [3].

On to `CCN(CC)c1nc(NC2CCCC2)c2ncn([C@@H]3O[C@H](C(=O)NC)[C@@H](O)[C@H]3O)c2n1`, for which the pEC50 at Adenosine receptor A3 is 5.60; on Adenosine receptor A1 it was under 5.00; on Adenosine receptor A2b, under 5.00; on Adenosine receptor A2a, under 5.00. Further, the Selectivity ratio (in the test listed under Homo sapiens [1]; in test [2]; in the test listed under Homo sapiens [3]) was over 4 each time.

As to `CCCNc1nc(N)nc2c1ncn2[C@@H]1O[C@H](C(=O)NC)[C@@H](O)[C@H]1O`, the pEC50 on Adenosine receptor A3 is 8.00; at Adenosine receptor A1 it was 6.50; at Adenosine receptor A2b it was 5.30; at Adenosine receptor A2a, under 5.00. Moreover, the Selectivity ratio in the test filed under Homo sapiens [1] was 501; in test [2] it was 32; in the test listed under Homo sapiens [3], over 1000.

In the case of `CNC(=O)[C@H]1O[C@@H](n2cnc3c(NC4CCCC4)nc(N)nc32)[C@H](O)[C@@H]1O`, the negative logarithm of the EC50 (pEC50) on Adenosine receptor A3 was 7.80; at Adenosine receptor A1 it was 7.40; at Adenosine receptor A2b, 6.10; on Adenosine receptor A2a, 5.90. Further, the Selectivity ratio in the test filed under Homo sapiens [1] is 50; in test [2], 3; in the test listed under Homo sapiens [3] it was 79.

Regarding `CCNc1nc(N)nc2c1ncn2[C@@H]1O[C@H](C(=O)NC)[C@@H](O)[C@H]1O`, the pEC50 was 8.00 at Adenosine receptor A3, 5.60 on Adenosine receptor A1, 5.80 at Adenosine receptor A2b and under 5.00 on Adenosine receptor A2a. Moreover, the figures for the Selectivity ratio (in the test filed under Homo sapiens [1]; in test [2]; in the test listed under Homo sapiens [3]) were 158, 251 and over 1000, respectively.

`CNC(=O)[C@H]1O[C@@H](n2cnc3c(NCc4cccc(I)c4)nc(N)nc32)[C@H](O)[C@@H]1O`: the pEC50 at Adenosine receptor A3 is 8.80; on Adenosine receptor A1, 6.60; on Adenosine receptor A2b, 6.80; on Adenosine receptor A2a, 6.60. Also, the Selectivity ratio in the test filed under Homo sapiens [1] was 100; in test [2] it was 158; in the test filed under Homo sapiens [3] it was 158.

As to `CNC(=O)[C@H]1O[C@@H](n2cnc3c(NCC(c4ccccc4)c4ccccc4)nc(N)nc32)[C@H](O)[C@@H]1O`, the pEC50 on Adenosine receptor A3 is 8.30; on Adenosine receptor A1 it was 6.40; at Adenosine receptor A2b, 6.70; at Adenosine receptor A2a, 6.10. The Selectivity ratio turned out to be 40 in the test listed under Homo sapiens [1], 79 in test [2] and 158 in the test listed under Homo sapiens [3].

As to `CCCCNc1nc(N)nc2c1ncn2[C@@H]1O[C@H](C(=O)NC)[C@@H](O)[C@H]1O`, the pEC50 is 7.40 on Adenosine receptor A3, 6.10 at Adenosine receptor A1, 5.90 at Adenosine receptor A2b and under 5.00 on Adenosine receptor A2a. The values for the Selectivity ratio (in the test listed under Homo sapiens [1]; in test [2]; in the test listed under Homo sapiens [3]) were 32, 20 and over 251, respectively.

With `CNC(=O)[C@H]1O[C@@H](n2cnc3c(NC4CCC4)nc(N)nc32)[C@H](O)[C@@H]1O`, the pEC50 on Adenosine receptor A3 is 8.30; at Adenosine receptor A1, 7.20; on Adenosine receptor A2b, 6.70; at Adenosine receptor A2a it was 5.60. For the same compound, the values for the Selectivity ratio (in the test filed under Homo sapiens [1]; in test [2]; in the test filed under Homo sapiens [3]) were 40, 13 and 501, respectively.

In the case of `CCNc1nc(NC2CCCC2)c2ncn([C@@H]3O[C@H](C(=O)NC)[C@@H](O)[C@H]3O)c2n1`, the pEC50 was 7.40 on Adenosine receptor A3, 6.30 at Adenosine receptor A1, under 5.00 at Adenosine receptor A2b and 6.30 at Adenosine receptor A2a. Besides, the Selectivity ratio in the test listed under Homo sapiens [1] is over 251; in test [2] it was 8; in the test listed under Homo sapiens [3], 8.

On to `CNC(=O)[C@H]1O[C@@H](n2cnc3c(NCc4ccccc4)nc(N)nc32)[C@H](O)[C@@H]1O`, for which the pEC50 was 7.50 at Adenosine receptor A3, 5.20 at Adenosine receptor A1, 6.90 on Adenosine receptor A2b and 5.50 at Adenosine receptor A2a. Further, the Selectivity ratio in the test listed under Homo sapiens [1] was 4; in test [2], 200; in the test filed under Homo sapiens [3] it was 100.

As to `CNC(=O)[C@H]1O[C@@H](n2cnc3c(NC4CCCC4)nc(N(C)C)nc32)[C@H](O)[C@@H]1O`, the pEC50 is 6.20 at Adenosine receptor A3, under 5.00 on Adenosine receptor A1, under 5.00 at Adenosine receptor A2b and 5.30 at Adenosine receptor A2a. In addition, the Selectivity ratio in the test filed under Homo sapiens [1] is over 16; in test [2] it was over 16; in the test listed under Homo sapiens [3], 8.
